Molecules are shown by their SMILES. “And” between values parts separate entries of the source, which are not always exact repeats. Equal values may be shown once. Inconclusive results and toxic doses are left out.

The subject of the assay is P388 leukemia ip, CD2F1 mice, survival T/C. The assay is described as follows: NCI In Vivo Anticancer Drug Screen. Data for tumor model P388 Leukemia (intraperitoneal) in CD2F1 (CDF1) mice. Particulars: endpoint: median survival time, higher = longer survival. The method, boiled down:
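Mice carrying the transplanted tumor received test compound or vehicle. Survival was recorded in each group, and the value is the treated-group measurement divided by that of the vehicle-treated control group.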

Where [1] appears, read: dose: 60.0 mg/kg/injection, schedule: Q01DX005 (ip), vehicle: saline with Tween-80.
Where [2] appears, read: dose: 120.0 mg/kg/injection, schedule: Q01DX005 (ip), vehicle: saline with Tween-80.
Setting [3] is: dose: 240.0 mg/kg/injection, schedule: Q01DX005 (ip), vehicle: saline with Tween-80.
Where [4] appears, read: dose: 100.0 mg/kg/injection, schedule: Q01DX009 (ip), vehicle: saline with Tween-80.
[5] abbreviates: dose: 200.0 mg/kg/injection, schedule: Q01DX009 (ip), vehicle: saline with Tween-80.
Where [6] appears, read: dose: 400.0 mg/kg/injection, schedule: Q01DX009 (ip), vehicle: saline with Tween-80.
Where [7] appears, read: dose: 25.0 mg/kg/injection, schedule: Q01DX005 (ip), vehicle: saline with Tween-80.
The mark [8] stands for this setting: dose: 50.0 mg/kg/injection, schedule: Q01DX005 (ip), vehicle: saline with Tween-80.
The mark [9] stands for this setting: dose: 100.0 mg/kg/injection, schedule: Q01DX005 (ip), vehicle: saline with Tween-80.
Setting [10] is: dose: 200.0 mg/kg/injection, schedule: Q01DX005 (ip), vehicle: saline with Tween-80.
[11] abbreviates: dose: 50.0 mg/kg/injection, schedule: Q01DX009 (ip), vehicle: Klucel (hydroxypropylcellulose) (HPC).
[12] abbreviates: dose: 100.0 mg/kg/injection, schedule: Q01DX009 (ip), vehicle: Klucel (hydroxypropylcellulose) (HPC).
[13] abbreviates: dose: 200.0 mg/kg/injection, schedule: Q01DX009 (ip), vehicle: Klucel (hydroxypropylcellulose) (HPC).
Setting [14] is: dose: 50.0 mg/kg/injection, schedule: Q01DX009 (ip), vehicle: saline with Tween-80.
The mark [15] stands for this setting: dose: 100.0 mg/kg/injection, schedule: Q04DX003 (ip), vehicle: saline with Tween-80.
[16] abbreviates: dose: 30.0 mg/kg/injection, schedule: Q01DX005 (ip), vehicle: saline with Tween-80.
The mark [17] stands for this setting: dose: 50.0 mg/kg/injection, schedule: Q01DX005 (ip), vehicle: Klucel (hydroxypropylcellulose) (HPC).
The mark [18] stands for this setting: dose: 100.0 mg/kg/injection, schedule: Q01DX005 (ip), vehicle: Klucel (hydroxypropylcellulose) (HPC).
The mark [19] stands for this setting: dose: 200.0 mg/kg/injection, schedule: Q01DX005 (ip), vehicle: Klucel (hydroxypropylcellulose) (HPC).

Regarding `CC1C2c3ccccc3C(c3ccccc32)C1CN1C(CCO)COC1c1ccccc1` (stereo not given), the T/C by setting is: under setting [1], 92 % of control; under setting [2], 87 % of control; under setting [3], 90 % of control.
Take `COc1ccc(/C(C)=C\C(=O)O)cc1`: the T/C reads like this: under setting [4], 90 % of control; under setting [5], 100 % of control; under setting [6], 100 % of control.
As for `CNC(=O)OCc1c(COC(=O)NC)c2n(c1-c1ccc(Cl)c(Cl)c1)CCS2(=O)=O`, the T/C reads like this: under setting [7], 108 % of control; under setting [8], 92 % of control; under setting [9], 88 % of control; under setting [10], 92 % of control.
For the compound `Cc1ccc(Nc2ccc(Nc3ccc(C)cc3)c3c2C(=O)c2cc(Cl)c(Cl)cc2C3=O)cc1`, the T/C reads like this: under setting [11], 101 % of control and 93 % of control and 95 % of control; under setting [12], 111 % of control and 89 % of control and 96 % of control; under setting [13], 103 % of control and 105 % of control; (dose: 400.0 mg/kg/injection, schedule: Q01DX009 (ip), vehicle: Klucel (hydroxypropylcellulose) (HPC)) 98 % of control.
`CCN(CC)C(=O)CC(c1ccccc1)N(C)C` (stereo not given): the T/C (dose: 60.0 mg/kg/injection, schedule: Q01DX005 (ip), vehicle: saline) is 98 % of control and the T/C (dose: 120.0 mg/kg/injection, schedule: Q01DX005 (ip), vehicle: saline) was 87 % of control.
Take `CC(C)(OC(=O)NC(CC(N)=O)C(=O)O)c1ccc(N=Nc2ccccc2)cc1` (stereo not given): the T/C is, setting by setting: under setting [14], 97 % of control; under setting [4], 92 % of control; under setting [5], 92 % of control.
In the case of `Cc1cc(N=Nc2ccc(NC(=O)c3ccc([N+](=O)[O-])cc3)cc2C)ccc1N=Nc1ccc2cc(S(=O)(=O)O)cc(S(=O)(=O)O)c2c1`, the T/C is, setting by setting: (dose: 12.5 mg/kg/injection, schedule: Q01DX005 (ip), vehicle: saline with Tween-80) 102 % of control and 107 % of control and 109 % of control; under setting [7], 109 % of control and 111 % of control and 120 % of control; under setting [9], 111 % of control.
Consider `C=C(C)Cn1ccn(C)c1=S`, for which the T/C under setting [15] is 96 % of control; the T/C (dose: 200.0 mg/kg/injection, schedule: Q04DX003 (ip), vehicle: saline with Tween-80) is 98 % of control; the T/C (dose: 400.0 mg/kg/injection, schedule: Q04DX003 (ip), vehicle: saline with Tween-80) was 102 % of control.
As for `Cc1nc2c([N+](=O)[O-])c(Nc3ccccc3)c([N+](=O)[O-])cc2[nH]1`, the T/C is, setting by setting: (dose: 25.0 mg/kg/injection, schedule: Q04DX003 (ip), vehicle: saline with Tween-80) 92 % of control; (dose: 50.0 mg/kg/injection, schedule: Q04DX003 (ip), vehicle: saline with Tween-80) 101 % of control; under setting [15], 104 % of control and 90 % of control.
As for `[O-]/[N+]1=[N+](\[O-])c2ccccc2CCc2ccccc21`, the T/C under setting [1] is 100 % of control, the T/C under setting [2] was 102 % of control and the T/C under setting [3] was 105 % of control.
Take `COc1cccc2c1C(=O)c1c(O)c3c(c(O)c1C2=O)C[C@@](O)(CO)C[C@@H]3OC1CC(N)C(O)C(C)O1` (stereo not given in full): the T/C (dose: 0.56 mg/kg/injection, schedule: Q04DX003 (ip), vehicle: water) is 109 % of control; the T/C (dose: 0.78 mg/kg/injection, schedule: Q01DX009 (ip), vehicle: water) was 167 % of control; the T/C (dose: 1.13 mg/kg/injection, schedule: Q04DX003 (ip), vehicle: water) is 104 % of control; the T/C (dose: 1.56 mg/kg/injection, schedule: Q01DX009 (ip), vehicle: water) was 167 % of control and 183 % of control; the T/C (dose: 2.25 mg/kg/injection, schedule: Q04DX003 (ip), vehicle: water) is 109 % of control and 118 % of control; the T/C (dose: 4.5 mg/kg/injection, schedule: Q04DX003 (ip), vehicle: water) is 115 % of control and 123 % of control. Besides, the T/C was 88 % of control (dose: 6.25 mg/kg/injection, schedule: Q01DX009 (ip), vehicle: water); 121 % of control (dose: 9.0 mg/kg/injection, schedule: Q04DX003 (ip), vehicle: water); 119 % of control and 123 % of control (dose: 18.0 mg/kg/injection, schedule: Q04DX003 (ip), vehicle: water); 97 % of control (dose: 36.0 mg/kg/injection, schedule: Q04DX003 (ip), vehicle: water).
Consider `Cc1nnc2cc3ccccc3cn12`, for which the T/C under setting [8] was 89 % of control, the T/C under setting [9] was 97 % of control and the T/C under setting [10] is 100 % of control.
Regarding `CCOC(=O)CN=Cc1ccccc1`, the T/C by setting is: under setting [1], 107 % of control; under setting [2], 108 % of control; under setting [3], 107 % of control.
On to `CN(C)c1ccc(C2c3c(oc4ccccc4c3=O)Oc3oc4ccccc4c(=O)c32)cc1`, for which the T/C was 98 % of control (dose: 15.0 mg/kg/injection, schedule: Q01DX005 (ip), vehicle: saline with Tween-80); 100 % of control under setting [16]; 89 % of control under setting [1].
Regarding `O=C(Nc1nnc(C(F)(F)F)s1)c1c(F)cccc1F`, the T/C is, setting by setting: (dose: 12.5 mg/kg/injection, schedule: Q01DX009 (ip), vehicle: saline with Tween-80) 104 % of control; (dose: 25.0 mg/kg/injection, schedule: Q01DX009 (ip), vehicle: saline with Tween-80) 104 % of control; under setting [14], 99 % of control.
In the case of `COC(=O)C1CCCC(C(=O)O)C1` (stereo not given), the T/C was 102 % of control (dose: 100.0 mg/kg/injection, schedule: Q01DX002 (ip), vehicle: saline with Tween-80); 102 % of control (dose: 200.0 mg/kg/injection, schedule: Q01DX002 (ip), vehicle: saline with Tween-80); 117 % of control (dose: 400.0 mg/kg/injection, schedule: Q01DX002 (ip), vehicle: saline with Tween-80).
Take `OCCN(CCCN(CCO)C(=S)S)C(=S)S.[Cu+2]`: the T/C by setting is: (dose: 12.5 mg/kg/injection, schedule: Q01DX005 (ip), vehicle: saline + Tween-80 + alcohol) 98 % of control; (dose: 25.0 mg/kg/injection, schedule: Q01DX005 (ip), vehicle: saline + Tween-80 + alcohol) 99 % of control; (dose: 50.0 mg/kg/injection, schedule: Q01DX005 (ip), vehicle: saline + Tween-80 + alcohol) 102 % of control and 104 % of control.
In the case of `Brc1cc(-c2ccccc2)ccc1OCC1CO1` (stereo not given), the T/C was 101 % of control under setting [17], 108 % of control under setting [18] and 97 % of control under setting [19].
Consider `O=C(Nc1ccc(Cl)cc1)Nc1nnc2nc(C3(c4nc5nnc(NC(=O)Nc6ccc(Cl)cc6)n5[nH]c4=O)CCCC3=O)c(=O)[nH]n12`, for which the T/C reads like this: under setting [16], 95 % of control; under setting [1], 91 % of control and 95 % of control; under setting [3], 86 % of control.
Turning to `CC(=O)OCc1c([O-])on[n+]1-c1ccccc1`, the T/C under setting [17] is 100 % of control, the T/C under setting [18] is 102 % of control and the T/C under setting [19] is 102 % of control.
With `Nc1ccc2c(C(F)(F)F)cc(=O)oc2c1`, the T/C is 106 % of control under setting [8], 99 % of control under setting [9] and 94 % of control under setting [10].
As to `S=C(Nc1cc(Cl)cc(Cl)c1)SCc1ccccc1`, the T/C by setting is: (dose: 50.0 mg/kg/injection, schedule: Q01DX009 (ip), vehicle: saline) 100 % of control; (dose: 100.0 mg/kg/injection, schedule: Q01DX009 (ip), vehicle: saline) 99 % of control; (dose: 200.0 mg/kg/injection, schedule: Q01DX009 (ip), vehicle: saline) 107 % of control.
As for `O=Cc1ccco1`, the T/C runs as follows: under setting [14], 99 % of control; under setting [4], 101 % of control; under setting [5], 118 % of control.
For `Cc1ccc(S(=O)(=O)OCC(COS(=O)(=O)c2ccc(C)cc2)C(C)(C)C)cc1`, the T/C was 101 % of control under setting [8], 104 % of control under setting [9] and 107 % of control under setting [10].
`N#C/C(=C/c1ccccc1)c1ccccc1`: the T/C runs as follows: under setting [14], 87 % of control; under setting [4], 88 % of control; under setting [5], 88 % of control; under setting [6], 102 % of control.
For `CN(C)C=Nc1cccnc1[N+](=O)[O-]`, the T/C under setting [11] was 108 % of control, the T/C under setting [12] was 99 % of control and the T/C under setting [13] is 108 % of control.
Consider `CC(=O)N(C)c1ccc2c(c1)C(=O)c1ccccc1-2`, for which the T/C reads like this: under setting [8], 102 % of control; under setting [9], 95 % of control; under setting [10], 92 % of control.

The record behind these values is PubChem BioAssay AID330 (DTP/NCI, 2004).
